The source of these data is PMC12888856 (Antimicrobial Agents and Chemotherapy, 2025).

Each structure is given as a SMILES string. Where only a bound is given, the exact number is not on record here.

What all share (format): cell-based, Influenza A virus
One assay relates to A/Malaya/302/1954 (H1N1). In words: microbe, parasite or virus in culture. The following applies: read-out: EC50.
The subject of assay [1] is Oseltamivir-resistant A/Weiss/1943 (NA H275Y).
Assay [2] relates to Baloxavir-resistant A/Puerto Rico/8/1934 (PA I38T).

The term EC50 denotes the concentration needed to bring the measured effect to its halfway point. For the compound `COC[C@@]1(C)COC[C@@H](COc2ccc(-c3cc(C(N)=O)c(O)nc3C(F)(F)F)cc2)O1` [VNT-101], the figures for the EC50 (in the assay on A/Malaya/302/1954 (H1N1); in assay [1]) were > 50000 nM and 118 nM, respectively.

Take `O=C1c2c(O)c(=O)ccn2N([C@@H]2c3ccccc3SCc3c2ccc(F)c3F)[C@@H]2COCCN12` [Baloxavir, baloxavir, reference compound]: the EC50 in the assay on A/Malaya/302/1954 (H1N1) came out at 1.1 nM; in assay [2], 105 nM; in assay [1], 0.42 nM.

For `CCOC(=O)C1=C[C@@H](OC(CC)CC)[C@H](NC(C)=O)[C@@H](N)C1` [Oseltamivir, oseltamivir, reference compound], the EC50 is 1150 nM with A/Malaya/302/1954 (H1N1), 2810 nM in assay [2] and > 78400 nM in assay [1]. The Fold shift was 2.89 in assay [2] and >74.66 in assay [1].
